Laboratory results taken from publication PMC9570995, “Design, Synthesis, and Biological Evaluation of Novel Dihydropyridine and Pyridine Analogs as Potent Human Tissue Nonspecific Alkaline Phosphatase Inhibitors with Anticancer Activity: ROS and DNA Damage-Induced Apoptosis” (Molecules, 2022).
Read-outs that look alike come from different tables or passages of the source.

Key:
[1] = test system: Cervical Cancer (HeLa) Cells; test: MTT cell viability assay, HeLa; assay type: cell-based; conditions: for IC50: unit given, read-out: Cervical Cancer (HeLa) Cells IC50 Values ± SEM
Excerpt: (§1) An MTT assay was used to determine the viability of the cells under examination in the desired medium. The mitochondrial dehydrogenase enzyme of the viable cells has a key role in the conversion of the yellow water-soluble substrate 3-(4,5-dimethylthiazol-2-y1)-2,5 diphenyl tetrazolium bromide (MTT) into a dark blue formazan product that is insoluble in water. The anticancer activity of the novel synthetic derivatives (4a–4k) was investigated through an MTT assay, with small modifications following the already published protocols against cancer cell lines (HeLa and MCF-7), using cisplatin as a reference drug. The cytotoxic effect of the tested compounds at 100 µM concentration was determined and represented as the percent growth inhibition compared with the untreated control cells. The first series comprised dihydropyridines analogous from 4a–4f with various substitution patterns on the phenyl ring. […] It is presumed that the 1-naphthyl containing compound 4c was locked in a configuration that is not favorable for an interaction with amino acid residues.
(§2) The anti-proliferative activity of the synthesized compounds was determined in MCF-7 and HeLa cells by an MTT cell viability assay, as described earlier. Briefly, we seeded 1 × 10^4 cells/well in a sterile 96-well culture microtiter plate and incubated them in a 5% CO2 incubator at 37 °C for 24 h. […] After 24 h, the cells were treated with 0.2 mg/mL of MTT reagent for 4 h. We added 10% acidified SDS (sodium dodecyl sulfate) solubilizing solution in propanol (1:1) to solubilize the formazan crystals. After 30 min at 37 °C, the plate was placed on a gyratory shaker to completely dissolve the formazan crystals. The plate was placed on a microplate reader to measure the optical density at 570 nm. The IC50 values were calculated from three independent experiments as previously reported.

[2] = target: T1, human tissue nonspecific alkaline phosphatase (h-TNAP) (Homo sapiens, UniProt P05186); test: Alkaline phosphatase inhibition assay (p-NPP substrate); assay type: biochemical; conditions: for inhibition at 1000 µM: compounds tested at 1 mM
T1 sequence (P05186 18-524): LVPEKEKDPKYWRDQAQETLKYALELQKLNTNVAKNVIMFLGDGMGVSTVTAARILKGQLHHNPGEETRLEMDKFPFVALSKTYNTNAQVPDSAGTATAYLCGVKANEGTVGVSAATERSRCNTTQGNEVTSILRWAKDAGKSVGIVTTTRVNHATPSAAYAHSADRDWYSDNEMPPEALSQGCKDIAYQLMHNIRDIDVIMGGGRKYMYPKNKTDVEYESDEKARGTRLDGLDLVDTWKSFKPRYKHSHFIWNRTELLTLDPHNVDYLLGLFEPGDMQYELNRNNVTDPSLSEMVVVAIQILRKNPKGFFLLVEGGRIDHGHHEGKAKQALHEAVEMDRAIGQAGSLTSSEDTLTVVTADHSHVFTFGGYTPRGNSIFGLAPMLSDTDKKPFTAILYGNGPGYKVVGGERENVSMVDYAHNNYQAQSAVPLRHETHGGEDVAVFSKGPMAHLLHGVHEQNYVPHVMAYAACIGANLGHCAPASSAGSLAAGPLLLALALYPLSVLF
Method: The newly synthesized compounds were tested against human tissue nonspecific alkaline phosphatase (h-TNAP). The compounds were initially tested against the h-TNAP enzymes at 1 mM concentration. The assay buffer (pH 9.5) constituted of 50% glycerol, followed by tris-hydrochloride (50.0 mM), MgCl2 (5.0 mM), and ZnCl2 (0.1 mM) in the solution. The enzyme substrate p-nitrophenyl phosphate (p-NPP) and all the required test compounds were diluted to the required concentration by a dilution buffer method. In a 96-well plate, the assay was started by adding 70 µL of assay buffer followed by 10.0 µL of the test compound (from 1 mM), 10.0 µL of the enzyme (0.5 µL/mL) and then subsequently incubating at 37 °C for 10 min. The reaction was initiated with the addition of 10.0 µL of substrate (5.0 mM p-NPP) into each well and incubated for an additional 30 min.
Percent inhibition was calculated by the formula:% Inhibition = [100 − (abs of test comp/abs of control) × 100]

[3] = test system: Breast Cancer (MCF-7) Cells; test: MTT cell viability assay, MCF-7; assay type: cell-based; conditions: for inhibition at 100 µM / IC50: Homo sapiens; for inhibition at 100 µM: MCF7, 100 µM, 24 h; for IC50: MCF7, unit given, read-out: Breast Cancer (MCF-7) Cells IC50 Values ± SEM
Excerpt: as §1, §2

[4] = Table 2, read-out: Alkaline Phosphatase (h-TNAP) percent inhibition
[5] = percent inhibition of h-TNAP, Table 1 and text, read-out: Inhibitory Potential
[6] = Homo sapiens, HeLa, 100 µM, 24 h
[7] = Table 2, unit given in Table 1, read-out: Alkaline Phosphatase (h-TNAP) IC50
[8] = h-TNAP, assay buffer pH 9.5, Table 1 and text, read-out: IC50 + SEM

SMILES | activity against h-TNAP in words [2] | inhibition at 1000 µM [2, 4] [%] | inhibition at 1000 µM [2, 5] [%] | IC50 [2, 7] [µM] | IC50 [2, 8] [µM] | IC50 ([1]; Homo sapiens, HeLa) [µM] | IC50 [3] [µM] | Cervical Cancer (HeLa) Cells % Inhibition (at 100 µM) ([1]; 100 µM, 24 h) [%] | IC50 [1] [µM] | activity against HeLa in words [1] | inhibition at 100 µM [1, 6] [%] | activity against MCF-7 in words [3] | inhibition at 100 µM [3] [%]
N.N.[Cl][Pt][Cl] [Cisplatin, reference compound] | – | – | – | – | – | – | – | 98.32 | 11.3 ± 0.78 | – | – | – | –
CSc1ccc(C2C(C#N)=C(N)N(Cc3ccccc3)C(N)=C2C#N)cc1 [Compound 4a, 2,6-Diamino-1-benzyl-4-(4-(methylthio)phenyl)-1,4-dihydropyridine-3,5-dicarbonitrile] | least activity | 21.1 | 20.9 | – | – | – | – | – | – | least potency | 7.71 | least potency | 37.9
CC(C)c1ccc(C2C(C#N)=C(N)N(Cc3ccccc3)C(N)=C2C#N)cc1 [Compound 4b, 2,6-Diamino-1-benzyl-4-(4-isopropylphenyl)-1,4-dihydropyridine-3,5-dicarbonitrile] | least activity | 28.3 | 28.3 | – | – | – | – | – | – | least potency | 11 | least potency | 41.8
N#CC1=C(N)N(Cc2ccccc2)C(N)=C(C#N)C1c1cccc2ccccc12 [Compound 4c, 2,6-Diamino-1-benzyl-4-(naphthalen-1-yl)-1,4-dihydropyridine-3,5-dicarbonitrile] | – | 26.2 | 26.2 | – | – | – | – | – | – | inactive | 21.3 | inactive | 23.1
COc1ccc(C2C(C#N)=C(N)N(Cc3ccccc3)C(N)=C2C#N)c(OC)c1OC [Compound 4e, 2,6-Diamino-1-benzyl-4-(2,3,4-trimethoxyphenyl)-1,4-dihydropyridine-3,5-dicarbonitrile] | – | – | – | 8.8 ± 0.53 | 8.8 ± 0.53 | 69.47 ± 0.07 | – | – | – | – | 60 | – | 5.73
COc1c(O)cccc1C1C(C#N)=C(N)N(Cc2ccccc2)C(N)=C1C#N [Compound 4f, 2,6-Diamino-1-benzyl-4-(3-hydroxy-2-methoxyphenyl)-1,4-dihydropyridine-3,5-dicarbonitrile] | – | – | – | 2.25 ± 0.16 | 2.25 ± 0.16 | 57 ± 7.1 | 77 ± 8.3 | – | – | – | 77.3 | – | 61.7

Continued, in another order:

activity against h-TNAP in words [2] | inhibition at 1000 µM [2, 4] [%] | inhibition at 1000 µM [2, 5] [%] | IC50 [2, 7] [µM] | IC50 [2, 8] [µM] | IC50 ([1]; Homo sapiens, HeLa) [µM] | IC50 [3] [µM] | SMILES | Cervical Cancer (HeLa) Cells % Inhibition (at 100 µM) ([1]; 100 µM, 24 h) [%] | IC50 [1] [µM] | activity against HeLa in words [1] | inhibition at 100 µM [1, 6] [%] | activity against MCF-7 in words [3] | inhibition at 100 µM [3] [%]
– | – | – | 0.49 ± 0.025 | 0.49 ± 0.025 | 63 ± 4.1 | 98 ± 5.7 | CCOc1ccc(-c2c(C#N)c(N)nc(NCCc3ccc(S(N)(=O)=O)cc3)c2C#N)cc1 [Compound 4g, 4-(2-((6-Amino-3,5-dicyano-4-(4-ethoxyphenyl)pyridine-2yl)amino)ethyl)benzene sulfonamide] | – | – | – | 67.1 | – | 53.3
least inhibitory activity | 37.6 | 37.6 | – | – | – | 109.9 ± 1.07 | CSc1ccc(-c2c(C#N)c(N)nc(NCCc3ccc(S(N)(=O)=O)cc3)c2C#N)cc1 [Compound 4h, 4-(2-((6-Amino-3,5-dicyano-4-(4-(methylthio)phenyl)pyridin-2-yl)amino)ethyl)benzene sulfonamide] | – | – | – | 38.4 | – | 57.2
least inhibitory activity | 31.7 | 31.7 | – | – | – | – | CC(C)c1ccc(-c2c(C#N)c(N)nc(NCCc3ccc(S(N)(=O)=O)cc3)c2C#N)cc1 [Compound 4i] | – | – | – | 39.3 | – | 34.6
– | – | – | 1.22 ± 0.12 | 1.22 ± 0.12 | 57 ± 1.5 | 54 ± 1.7 | CCOc1ccc(-c2c(C#N)c(N)nc(NCCCn3ccnc3)c2C#N)cc1 [Compound 4j, 2-((3-(1H-Imidazol-1-yl)propyl)amino)-6-amino-4-(4-ethoxyphenyl)pyridine-3,5-dicarbonitrile] | – | – | – | 77.8 | – | 72.4
comparatively inactive | 36.5 | 36.5 | – | – | 66 ± 1.97 | – | CC(C)c1ccc(-c2c(C#N)c(N)nc(NCCCn3ccnc3)c2C#N)cc1 [Compound 4k, 2-((3-(1H-Imidazol-1-yl)propyl)amino)-6-amino-4-(4-(isopropyle)phenyl)pyridine-3,5-dicarbonitrile] | – | – | – | 63.8 | – | 40.1
– | – | – | – | – | – | 2.81 ± 0.39 | COc1cccc2c1C(=O)c1c(O)c3c(c(O)c1C2=O)C[C@@](O)(C(=O)CO)C[C@@H]3O[C@H]1C[C@H](N)[C@H](O)[C@H](C)O1 [Doxorubicin, reference compound] | – | – | – | – | – | 98.9
